Patent publication US8906897B2, “Antimicrobial agents based on hemin derivatives” (Obschestvo S Ogranichennoi Otvetstvennostiyu …, priority 2009, dated 2014)

Test system: Cryptococcus neoformans No. 3465
Experiment: Antifungal activity, culture growth with pH indicator
Assay type: cell-based
Set-up: key: (−) No growth; the indicator is blue; (±) Weak growth; the indicator is yellow, but the precipitate of grown cells looks as a diffuse spot; (+) Strong growth; the indicator is yellow, and the cell precipitate looks as a compact spot
Protocol: The subjects of action were Cryptococcus neoformans No. 3465 museum strain cells and Candida albicans No. 927 museum strain cells grown for one day on a glucose-peptone-yeast medium at 32° C. The reference compounds were the following antimycotics: pimafucin, amphotericin, and fluconazole.
Experiments were carried out on round-bottomed 96-well plates (Lenmedpolimer) in two replicas. To the first column (0), added was 10 μL of the stock solution of a water-soluble agent with concentrations of 10^−2 to 10^−3 mol/L; to the second column, added was also the same 10 μL plus 10 μL of the solvent corresponding to the given compound, suspended, 10 μL was transferred to the next well, and so on to the 8th well of the row. Stock solutions of water-insoluble compounds of general formula (I) (compounds V, VIII, XII, XIII, XIV, and hemin) were prepared in DMSO and were diluted with DMSO and the medium. DMSO concentrations in the reaction mixture in a well were ≦5%.
Then, to every well added was 190 μL of a Cr. neoformans cell culture suspension in a synthetic nutritional medium (so that the final cell concentration was approximately 10^3 CFU/mL), this medium containing Bromocresol Blue as a pH-indicator (pH: 5.5; indicator color: blue). As pH reduced to 4.5, the indicator in the culture changed its color to yellow, thereby indicating fungal cell growth. The synthetic medium comprised the following components: salts, amino acids, microelements, vitamins, an antibiotic, and glucose (30 components altogether) [Yarrow, D., “Methods for the Isolation, Maintenance and Identification of Yeasts,” in: The Yeasts. A Taxonomic Study, Ed. by Kurtsman, C. P, and Fell, M., Elsevier, 1998, pp. 77-100]. After being inoculated with a Cr. neoformans cell suspension, the plate was incubated at 32° C. for 1 h with stirring, then transferred to a stationary thermostat and incubated for two and five days at 27° C. After being inoculated with a C. albicans cell suspension, the plates were incubated for 1 h at 32° C. with stirring, then transferred to a stationary thermostat and incubated for one and four days at 27° C.

[1] = dilution : 16 of 5.00 × 10^−5 M
[2] = dilution : 32 of 5.00 × 10^−5 M
[3] = dilution : 64 of 5.00 × 10^−5 M
[4] = dilution : 128 of 5.00 × 10^−5 M

SMILES | Test culture growth at various dilutions of the agent on day 2 (dilution 0: 5.00 × 10^−5 M) | Test culture growth at various dilutions of the agent on day 2 (dilution : 2 of 5.00 × 10^−5 M) | Test culture growth at various dilutions of the agent on day 2 (dilution : 4 of 5.00 × 10^−5 M) | Test culture growth at various dilutions of the agent on day 2 (dilution : 8 of 5.00 × 10^−5 M) | Test culture growth at various dilutions of the agent on day 2 [1] | Test culture growth at various dilutions of the agent on day 2 [2] | Test culture growth at various dilutions of the agent on day 2 [3] | Test culture growth at various dilutions of the agent on day 2 [4]
C=CC1=C(C)c2cc3[n-]c(cc4nc(cc5[n-]c(cc1n2)c(C)c5CCC(=O)N[C@@H](CCC(=O)N[C@@H](CCCNC(=N)N)C(=O)OC)C(=O)N[C@@H](CCCNC(=N)N)C(=O)OC)C(CCC(=O)N[C@@H](CCC(=O)N[C@@H](CCCNC(=N)N)C(=O)OC)C(=O)N[C@@H](CCCNC(=N)N)C(=O)OC)=C4C)c(C)c3C=C.[Cl-].[Fe+3] [Compound XVIII, 6,7-bis[bis(N^α-L-Arginyl Methyl Ester)-L-Glutamyl]-Protohemin IX] | − | − | − | − | + | + | + | +
C=CC1=C(C)c2cc3[n-]c(cc4nc(cc5[n-]c(cc1n2)c(C)c5CCC(=O)N[C@@H](CO)C(=O)OC)C(CCC(=O)N[C@@H](CO)C(=O)OC)=C4C)c(C)c3C=C.[Cl-].[Fe+3] [VIII] | ± | ± | ± | + | + | + | + | +
C=CC1=C(C)c2cc3[n-]c(cc4[n-]c(cc5nc(cc1n2)C(C)=C5C=C)c(C)c4CCC(=O)O)c(CCC(=O)O)c3C.[Cl-].[Fe+3] [Hem, hemin] | ± | ± | ± | ± | ± | ± | + | +
C=CC1=C(C)c2cc3[n-]c(cc4nc(cc5[n-]c(cc1n2)c(C)c5CCC(=O)N[C@@H](CCCNC(=N)N)C(=O)OC)C(CCC(=O)N[C@@H](CCCNC(=N)N)C(=O)OC)=C4C)c(C)c3C=C.[Cl-].[Fe+3] [VII] | − | ± | + | + | + | + | + | +
